Here are results for five molecules from patent US4020111A, “Propynyloxy alkyl arene insecticides” (priority 1975, dated 1977).

As a reminder, the mortality is the share of the test organisms that died.

The subject of data set [1] is polyvalent resistant (CH strain) houseflies. Put plainly: whole plant or invertebrate. The class given is in vivo, housefly (CH strain). Particulars: Musca domestica, topical, 24 h. The procedure: The effect of O-(2-propynyl) oximes with Dimetilan and with GS 13798 was obtained from tests on polyvalent resistant (CH strain) houseflies that had been chilled and to the dorsal region of which was applied an acetone solution of synergist and insecticide at a ratio of two to one. Duplicate tests were performed using 10 four to five-day old female houseflies per test. After dosage, the flies were put in a plastic petri dish with cotton soaked in a sugar-water solution. These doses of insecticide used without synergist caused 10-40% mortality.
(§1) In Table IX, and in the tables following it, the doses of topically applied insecticides and of synergists unless otherwise noted are expressed as micrograms per fly (μg/fly).
The effect of compounds II-C, II-D and II-E with Dimetilan and GS 13798 was determined, following the procedure of Example 5, from tests on polyvalent resistant (CH strain) houseflies. These doses of insecticide used without synergist caused 10-40% mortality.
(§2) The synergistic effect with GS 13005 of compounds I-A, I-B, I-D, I-E, I-F, I-G and I-I was determined from topical application tests to IN/WHO strain, Rutgers A strain and polyvalent CH strain houseflies using the procedures of Example 5. The percent kills of the IN/WHO strain flies after 24 hours are shown in Table XXVIII; of the Rutgers A strain, in Table XXIX; and of the polyvalent CH strain, in Table XXX. The doses of insecticide alone to the CH strain files caused 10-40% mortality.
(§3) The synergistic effect with Diazinon and GS 13005 of various of the benzyl 2-propynyl ethers identified in Tables II and IIa was determined by topical application tests on IN/WHO strain, and Rutgers A strain and polyvalent, resistant, CH strain houseflies using the procedures of Example 5. The percent kills after 24 hours of IN/WHO strain flies are shown in Table XXXI; of Rutgers A strain flies, in Table XXXII; and of CH strain flies, in Table XXXIII. The doses of insecticide alone to the CH strain flies caused 10-40% mortality.
The synergistic effect with pyrethrum of various synergist compounds was determined by topical application tests on polyvalent, resistant CH strain houseflies following the procedure of Example 5. Application of the insecticide alone caused 10-40% mortality.

Data set [2] has as its system IN/WHO strain house flies. The experiment in a line: topical application test, percent kill after 24 hours, IN/WHO strain. The class given is in vivo, house fly (susceptible IN/WHO strain). On the procedure: as §1
The synergistic effect of O-(2-propynyl) oximes with mobam was determined from topical application tests on susceptible, female, IN/WHO strain house flies and from tests on resistant, female, Rutgers A strain house flies. The synergist and insecticide were dissolved in ACS Grade acetone in such quantities that a 1.0μ liter volume applied to the thorax of 3-to-5 day old CO2 -anesthetized female adult house flies contained the desired dosage. After being treated, the flies were confined, 10 to a plaster petri dish, with 3-5 dishes/treatment, and held for 24-hr. observation of mortality. Reconstituted skim milk on cotton dental wicks was provided during the holding period. The percent kills after 24 hours are shown in Table X for the IN/WHO strain and Table XI for the Rutgers A strain.
The synergistic effect of benzyl 2-propynyl ethers with mobam was determined from topical application tests on IN/WHO and Rutgers A strain houseflies, following the procedure of Example 5. The percent kills after 24 hours are shown in Table XIV for the IN/WHO strain and in Table XV for the Rutgers A strain.
The effects of varying the insecticide dose and the synergist-insecticide ratio are further illustrated, with synergist compounds II-D, II-E, II-F and Mobam insecticide, in Tables XVI, XVII and XVIII.
The synergistic effect on IN/WHO flies of synergist compound II-K with Dimetilan, pyrolan, Baygon and HRS 1422 is illustrated by the 24 hour percent mortality data in Tables XIX, XX and XXI.
The effect on IN/WHO flies of synergist compound IV-C, identified in Table IV, with mobam was determined by the topical application procedure of Example 5.
The synergistic effect with Diazinon of compounds I-B, I-D, I-F, I-G, I-H and I-I, identified in Tables I and Ia, was determined from topical application tests on IN/WHO strain houseflies and on Rutgers A strain houseflies by the procedure of Example 5. The percent kills after 24 hours are shown in Table XXV for the IN/WHO strain and Table XXVI for the Rutgers A strain.
as §2, §3
The synergist effect on IN/WHO flies of synergist compound II-K with Gardona and Bidrin is illustrated by the 24 hour percent mortality data in Tables XXXIV and XXXV.
The synergistic effect on IN/WHO strain flies and Rutgers A strain flies of compound IV-C with GS 13005 and with Diazinon was determined by the topical application procedure of Example 5. The percent kills of IN/WHO strain flies after 24 hours are shown in Tables XXXVI and XXXVII; the percent kills of Rutgers A strain flies are shown in Tables XXXVIII and XXXIX.

Data set [3] concerns Wilson strain house flies. The class given is in vivo, house fly (susceptible Wilson strain). On the procedure:
The required solutions of the insecticide and of the synergist compound were prepared in acetone at a concentration of one milligram per milliliter. One-pint wide mouth glass jars were coated wiith the appropriate insecticide-synergist combination by rolling the jars containing aliquots of the appropriate solutions diluted to three milliliters with acetone to deposit, by evaporation, a film of the test materials. The flies were transferred under carbon dioxide anesthesia and held in the jar at room temperature. Perforated aluminum foil was used to cover the jars and to hold cotton saturated with 10% sugar solution. Counts were made at intervals, but the recorded mortality was based on 24-hour kill, rather than knockdown. All prostrate nonmoving flies were considered dead. A determination was then made of the contact synergistic ratio [SR], which is the ratio of the LC50 of insecticide alone to the LC50 of the insecticide when applied together with the synergist. The LC50 of the insecticide was estimated from a log-probit plot of percent kill versus dosage. […] The LC50 of the combination of insecticide and synergist was determined at a synergist to insecticide parts by weight ratio of five to one.

In data set [4] the test system is mice. The experiment in a line: extension of Secobarbital sleeping time by synergists. The class given is in vivo, Swiss albino white male mice. As to conditions: Secobarbital 37 mg/K; for Relative Sleeping Time: treated/control. The procedure: (§4) The selectivity of the synergist compounds of this invention is illustrated by the results of sleeping-time extension tests and of acute toxicity tests on Swiss albino white male mice.
(§5) The effect of various synergist compounds on sleeping time of sodium secobarbital [Secobarbital] and of 3,3-diethyl-5-methyl-2,4-dioxypiperidine [Noludar] was determined by administering the drug, with and without synergist, to approximately 38-day old male mice weighing from 25 to 30 grams. Synergists were administered in each of two doses, 74.0 mg/kg (dilution being 2.0 mg/0.1 ml corn oil), and 110.0 mg/kg (dilution 3.0 mg/0.1 ml oil). Secobarbital was administered at a dose of 37.0 mg/kg (dilution 1.0 mg/0.1 ml water). Noludar was administered at a dose of 110.0 mg/kg (dilution 3.0 mg/0.1 ml water). The synergist was administered one hour prior to administration of the Secobarbital or Noludar. Secobarbital and Noludar sleeping times were obtained for both the control (drug only) and the treated (synergist plus drug) mice by noting the time lapse between the administration of the drug and the recovery of the righting reflex, i.e. when the animal regains conciousness and can walk up an inclined wooden tray with coordination. The relative sleeping time (R.S.) was noted. The R.S. is the extended sleeping time in the treated mice (synergist plus drug) divided by the sleeping time in the control mice (drug only). The mean sleeping time for the treated mice and the R.S. are shown on Table XXXXIV for various synergist compounds.

Data set [5] relates to mice. The experiment in a line: extension of Noludar sleeping time by synergists. The class given is in vivo, Swiss albino white male mice. As to conditions: Noludar 110 mg/K, synergist 110 mg/K; for Relative Sleeping Time: treated/control. The procedure:
as §4, §5

Data set [6] has as its system mice. The experiment in a line: synergism of acute toxicity of Dimetilan, GS 13005, Secobarbital and Methadone (intraperitoneal). The data set is classed as in vivo, Swiss albino white male mice. As to conditions: for number of mice dead: 48 hours, of eight mice. On the procedure: The synergism of the acute toxicity of Dimetilan by various synergists was determined by tests on Swiss albino, white male mice aged 5 to 6 weeks and weighing 23 to 27 grams. The synergists and insecticides were dissolved in corn oil and the drugs were dissolved in distilled water. All compounds were administered intraperitoneally by injection in the lower quadrent of the abdomen. The synergist was administered in 0.1 ml of corn oil 1 hour prior to administration of the insecticide. Eight mice were treated, per dosage, with each synergist. The mice were watched for a minimum of 6 hours while held in a glass jar with bedding individually after intraperitoneal injection of the test solutions. Lethality was noted, the animals were weighed and transferred in cages, and food and water were supplied. Control mice were given 0.1 ml of corn oil at the time of administration of the synergist to the test mice and 0.1 ml corn oil plus Dimetilan at the time of administration of the insecticide to the test mice.
By the same procedure, the synergism of acute toxicity of GS 13005, Secobarbital and 6-dimethylamino-4,4-diphenyl-3-heptanone [Methadone] was determined.

In data set [7] the test system is mice. The experiment in a line: acute toxicity of Dimetilan alone and of synergist alone (intraperitoneal). The data set is classed as in vivo, Swiss albino white male mice. As to conditions: synergist alone 1000 mg/kg ip, 72 hours, of eight mice. The procedure: To determine the acute toxicity of dimetilan alone, eight dosage levels of Dimetilan, ranging from 4 to 32 mg per kg wer applied to eight, Swiss, albino, white, male mice per dosage level. The mice weighed approximately 23 to 27 grams and were five to size weeks old. The Dimetilan was administered intraperitoneally in 0.1 ml of corn oil one hour after the administration of the same dose of corn oil alone.
To determine the acute toxicity of the synergist alone, various synergists were administered intraperitoneally at a dose of 1000 mg/kg to each of a group of eight mice. The number of animals dead at the end of 72 hours is reported in the left hand column of Table XXXXVI.

[8] abbreviates: Dimetilan 8 mg/kg + synergist 240 mg/kg ip.

In the case of `CCOP(=S)(OCC)Oc1cc(C)nc(C(C)C)n1` [Diazinon, O,O-diethyl O-(2-isopropyl-4-methyl-6-pyrimidyl) phosphorothioate, reference compound], the mortality at 5 µg/fly in data set [1] (read-out: mortality, insecticide alone) lay in the range of 10 to 40%. In addition, the “percent kill after 24 hours” value in data set [2] (Diazinon alone 0.03 μg/fly, 1440 min) worked out at 5%.
As to `CNC(=O)Oc1cccc2ccc(C)nc12` [GS 13798, 8-(2-methylquinolyl)-N-methylcarbamate, reference compound], the mortality at 1 µg/fly in data set [1] (read-out: mortality, insecticide used without synergist) lay within 10 to 40%.
As for `C#CCOCc1cc(Cl)c(Cl)cc1Cl` [II-F], in data set [3] (in vivo), the “Contact Synergistic Ratio, Carbaryl (LC50 insecticide alone / LC50 with synergist)” value turned out to be 150. Moreover, the “Contact Synergistic Ratio, Pyrolan (LC50 insecticide alone / LC50 with synergist)” value in data set [3] (pyrolan, synergist to insecticide 5:1 by weight, 24 h) came to 15. The “percent mortality 24 hours” value in data set [2] (Mobam 0.13 μg/fly, synergist/insecticide 5/1) was 23%. Besides, in the data set with mice [4] (synergist 110 mg/K), the “Mean Sleeping Time” value came out at 46 min and the “Relative Sleeping Time” value is listed as 1.0. Moreover, in the data set on mice [5], the “Mean Sleeping Time” value was 38 min and the “Relative Sleeping Time” value is reported as 1.3. The “number of mice dead” value with mice [6] (setting [8]) turned out to be 0.
Regarding `Cc1cc(OC(=O)N(C)C)n(-c2ccccc2)n1` [Pyrolan, 3-methyl-1-phenyl-5-pyrazolyl-N-dimethylcarbamate, reference compound], the “LC50 of insecticide alone” value in data set [3] (insecticide alone, 24-hour kill) is on record as 0.15 mg/jar. Also, the “24 hour percent mortality” value worked out at 0% in data set [2] (Pyrolan alone 0.63 μg/fly), 3% in data set [2] (Pyrolan alone 1.3 μg/fly), 10% in data set [2] (Pyrolan alone 2.5 μg/fly) and 43% in data set [2] (Pyrolan alone 5.0 μg/fly).
In the case of `CCOCCOCCOC(C)Oc1ccc2c(c1)OCO2` (stereo not shown) [Sesoxane, reference compound], the “Relative Sleeping Time” value came out at 6.1 in the data set on mice [4] (synergist 74 mg/K), 8.3 in the data set on mice [4] (synergist 110 mg/K) and 3.1 with mice [5]. Besides, the entries for the “number of mice dead” value in the data set on mice [7], in the data set on mice [6] (Dimetilan 8 mg/kg + synergist 80 mg/kg ip) and in the data set on mice [6] (setting [8]) were 1, 8 and 8, respectively. Moreover, the results for the “mice lethality (number dead)” value in the data set on mice [6] (GS 13005 71 mg/kg + synergist 213 mg/kg), with mice [6] (Methadone 32 mg/kg + synergist 215 mg/kg) and in the data set on mice [6] (Secobarbital 90 mg/kg + synergist 215 mg/kg) were 0, 5 and 6, respectively.
